Assay results reported in PMC7402526, “An in vitro quantitative systems pharmacology approach for deconvolving mechanisms of drug-induced, multilineage cytopenias” (PLoS Computational Biology, 2020).

Experiments:
[1] = tested on: granulocyte progenitor (Gran-lin prog); assay: MLTA, GranP: concentration-response and QSP model fit; assay type: cell-based, human; conditions: Homo sapiens, 144 h
Method in brief: (§1)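 Drug was added at time 0 to thawed human bone marrow CD34+ cells in SFEM II plus a cytokine cocktail. After 6 days at 37°C, subsets were counted by surface-marker flow with TruCount beads. Vehicle-normalized, donor-pooled data then fed an Emax model separating anti-proliferative from cell-killing effects.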

[2] = tested on: total viable cells (totalViableCells); assay: MLTA, total live cells concentration-response; assay type: cell-based; conditions: Homo sapiens, 144 h, 6 days, normalized to vehicle control, read-out: total_live normalized cell count
Method in brief: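 Freeze-thawed primary human bone marrow CD34+ cells in SFEM II with cytokine cocktail, drug added day 0, 6 days at 37°C, 5% CO2. Live/dead counts by 17-parameter flow cytometry with DAPI exclusion, bead-normalized, volume-corrected to cells/mL. Normalized per donor to mean of six vehicle wells; 2–7 donors pooled.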

MK cells (MK-lin) = assay: MLTA, MK: concentration-response and QSP model fit; assay type: cell-based, human; conditions: Homo sapiens, 144 h
Method in brief: (§2)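 Six-day flow cytometry counts, bead-normalized and expressed relative to the mean of six vehicle wells, underlie each value. Cells were primary human bone marrow CD34+ cells cultured in SFEM II with cytokines promoting multi-lineage differentiation and self-renewal.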

granulocytes (Gran-lin) = assay: MLTA, Gran: concentration-response and QSP model fit; assay type: cell-based, human
Method in brief: as §1

[3] = tested on: lymphocyte progenitors (LymP); assay: MLTA, LymP: concentration-response and QSP model fit; assay type: cell-based, human; conditions: Homo sapiens, Lymphocyte, 144 h
Method in brief: as §2

[4] = tested on: multi-potent progenitors (MPPs); assay: MLTA, MPPs: concentration-response and QSP model fit; assay type: cell-based, human
Method in brief: as §2

B cells (B-lin) = assay: MLTA, B-lin: concentration-response and QSP model fit; assay type: cell-based, human; conditions: Homo sapiens, B-cell, 144 h
Method in brief: as §2

[5] = tested on: granulocyte-macrophage progenitor (GMPs); assay: MLTA, GMPs: concentration-response and QSP model fit; assay type: cell-based, human; conditions: Homo sapiens, 144 h, 6 days, normalized to vehicle control, read-out: GMPs normalized cell count
Method in brief: as §2

[6] = QSP model fit of 6-day MLTA data
[7] = Homo sapiens, 144 h, QSP model fit of 6-day MLTA data
[8] = cell-killing component, max(0, EmaxT-1)

## CC(=O)O[C@@]12CO[C@@H]1C[C@H](O)[C@@]1(C)C(=O)[C@H](O)C3=C(C)[C@@H](OC(=O)[C@H](O)[C@@H](NC(=O)OC(C)(C)C)c4ccccc4)C[C@@](O)([C@@H](OC(=O)c4ccccc4)[C@H]21)C3(C)C [docetaxel]
[1]; dose 0.2 nM, 6 days, normalized to vehicle control, read-out: GranPs normalized cell count
  activity at 0.0002 µM: 110%
[1]; dose 1 nM, 6 days, normalized to vehicle control, read-out: GranPs normalized cell count
  activity at 0.001 µM: 110%
[1]; dose 5 nM, 6 days, normalized to vehicle control, read-out: GranPs normalized cell count
  activity at 0.005 µM: 4.64%
[1]; dose 25 nM, 6 days, normalized to vehicle control, read-out: GranPs normalized cell count
  activity at 0.025 µM: 0%
[1]; dose 100 nM, 6 days, normalized to vehicle control, read-out: GranPs normalized cell count
  activity at 0.1 µM: 0.0204%
[1]; dose 500 nM, 6 days, normalized to vehicle control, read-out: GranPs normalized cell count
  activity at 0.5 µM: 0.0147%
[1]; dose 2500 nM, 6 days, normalized to vehicle control, read-out: GranPs normalized cell count
  activity at 2.5 µM: 0.0152%
[1]; parameter from QSP model fitting, read-out: Emax_drug_GranP
  Emax: 0.04%
[2]; dose 0.2 nM
  viability at 0.0002 µM: 100%
[2]; dose 1 nM
  viability at 0.001 µM: 108%
[2]; dose 5 nM
  viability at 0.005 µM: 4.66%
[2]; dose 25 nM
  viability at 0.025 µM: 0.311%
[2]; dose 100 nM
  viability at 0.1 µM: 0.197%
[2]; dose 500 nM
  viability at 0.5 µM: 0.378%
[2]; dose 2500 nM
  viability at 2.5 µM: 0.283%
MK cells (MK-lin); [6]
  EC50: 7.79 nM
MK cells (MK-lin); dose 0.2 nM, 6 days, normalized to vehicle control, read-out: MK normalized cell count
  activity at 0.0002 µM: 94.7%
MK cells (MK-lin); dose 1 nM, 6 days, normalized to vehicle control, read-out: MK normalized cell count
  activity at 0.001 µM: 109%
MK cells (MK-lin); dose 5 nM, 6 days, normalized to vehicle control, read-out: MK normalized cell count
  activity at 0.005 µM: 14.4%
MK cells (MK-lin); dose 25 nM, 6 days, normalized to vehicle control, read-out: MK normalized cell count
  activity at 0.025 µM: 1.1%
MK cells (MK-lin); dose 100 nM, 6 days, normalized to vehicle control, read-out: MK normalized cell count
  activity at 0.1 µM: 0.719%
MK cells (MK-lin); dose 500 nM, 6 days, normalized to vehicle control, read-out: MK normalized cell count
  activity at 0.5 µM: 0.951%
MK cells (MK-lin); dose 2500 nM, 6 days, normalized to vehicle control, read-out: MK normalized cell count
  activity at 2.5 µM: 1.05%
MK cells (MK-lin); parameter from QSP model fitting, read-out: Emax_drug_MK
  Emax: 12.6%
Granulocytes (Gran-lin); [7]
  EC50: 7.91 nM
Granulocytes (Gran-lin); Homo sapiens, 144 h, dose 0.2 nM, 6 days, normalized to vehicle control, read-out: Gran normalized cell count
  activity at 0.0002 µM: 99.7%
Granulocytes (Gran-lin); Homo sapiens, 144 h, dose 1 nM, 6 days, normalized to vehicle control, read-out: Gran normalized cell count
  activity at 0.001 µM: 112%
Granulocytes (Gran-lin); Homo sapiens, 144 h, dose 5 nM, 6 days, normalized to vehicle control, read-out: Gran normalized cell count
  activity at 0.005 µM: 2.09%
Granulocytes (Gran-lin); Homo sapiens, 144 h, dose 25 nM, 6 days, normalized to vehicle control, read-out: Gran normalized cell count
  activity at 0.025 µM: 0.0343%
Granulocytes (Gran-lin); Homo sapiens, 144 h, dose 100 nM, 6 days, normalized to vehicle control, read-out: Gran normalized cell count
  activity at 0.1 µM: 0.0437%
Granulocytes (Gran-lin); Homo sapiens, 144 h, dose 500 nM, 6 days, normalized to vehicle control, read-out: Gran normalized cell count
  activity at 0.5 µM: 0.0563%
Granulocytes (Gran-lin); Homo sapiens, 144 h, dose 2500 nM, 6 days, normalized to vehicle control, read-out: Gran normalized cell count
  activity at 2.5 µM: 0.0425%
Granulocytes (Gran-lin); Homo sapiens, 144 h, parameter from QSP model fitting, read-out: Emax_drug_Gran
  Emax: 276%
Granulocytes (Gran-lin); [8]
  EmaxCK,Gran: 1.762 day⁻¹
[3]; dose 0.2 nM, 6 days, normalized to vehicle control, read-out: LymP normalized cell count
  activity at 0.0002 µM: 96.4%
[3]; dose 1 nM, 6 days, normalized to vehicle control, read-out: LymP normalized cell count
  activity at 0.001 µM: 131%
[3]; dose 5 nM, 6 days, normalized to vehicle control, read-out: LymP normalized cell count
  activity at 0.005 µM: 24.3%
[3]; dose 25 nM, 6 days, normalized to vehicle control, read-out: LymP normalized cell count
  activity at 0.025 µM: 6.02%
[3]; dose 100 nM, 6 days, normalized to vehicle control, read-out: LymP normalized cell count
  activity at 0.1 µM: 2.7%
[3]; dose 500 nM, 6 days, normalized to vehicle control, read-out: LymP normalized cell count
  activity at 0.5 µM: 7.71%
[3]; dose 2500 nM, 6 days, normalized to vehicle control, read-out: LymP normalized cell count
  activity at 2.5 µM: 6.19%
[3]; parameter from QSP model fitting, read-out: Emax_drug_LymP
  Emax: 0.16%
[4]; [7]
  EC50: 4.71 nM
[4]; Homo sapiens, 144 h, dose 0.2 nM, 6 days, normalized to vehicle control, read-out: MPPs normalized cell count
  activity at 0.0002 µM: 91%
[4]; Homo sapiens, 144 h, dose 1 nM, 6 days, normalized to vehicle control, read-out: MPPs normalized cell count
  activity at 0.001 µM: 107%
[4]; Homo sapiens, 144 h, dose 5 nM, 6 days, normalized to vehicle control, read-out: MPPs normalized cell count
  activity at 0.005 µM: 63.9%
[4]; Homo sapiens, 144 h, dose 25 nM, 6 days, normalized to vehicle control, read-out: MPPs normalized cell count
  activity at 0.025 µM: 2.42%
[4]; Homo sapiens, 144 h, dose 100 nM, 6 days, normalized to vehicle control, read-out: MPPs normalized cell count
  activity at 0.1 µM: 0.694%
[4]; Homo sapiens, 144 h, dose 500 nM, 6 days, normalized to vehicle control, read-out: MPPs normalized cell count
  activity at 0.5 µM: 2.03%
[4]; Homo sapiens, 144 h, dose 2500 nM, 6 days, normalized to vehicle control, read-out: MPPs normalized cell count
  activity at 2.5 µM: 0.798%
[4]; Homo sapiens, 144 h, parameter from QSP model fitting, read-out: Emax_drug_MPP
  Emax: 201%
[4]; [8]
  EmaxCK,MPP: 1.014 day⁻¹
B cells (B-lin); [6]
  EC50: 10.4 nM
B cells (B-lin); dose 0.2 nM, 6 days, normalized to vehicle control, read-out: B-lin normalized cell count
  activity at 0.0002 µM: 89%
B cells (B-lin); dose 1 nM, 6 days, normalized to vehicle control, read-out: B-lin normalized cell count
  activity at 0.001 µM: 94.8%
B cells (B-lin); dose 5 nM, 6 days, normalized to vehicle control, read-out: B-lin normalized cell count
  activity at 0.005 µM: 3.47%
B cells (B-lin); dose 25 nM, 6 days, normalized to vehicle control, read-out: B-lin normalized cell count
  activity at 0.025 µM: 0.169%
B cells (B-lin); dose 100 nM, 6 days, normalized to vehicle control, read-out: B-lin normalized cell count
  activity at 0.1 µM: 1.5%
B cells (B-lin); dose 500 nM, 6 days, normalized to vehicle control, read-out: B-lin normalized cell count
  activity at 0.5 µM: 1.33%
B cells (B-lin); dose 2500 nM, 6 days, normalized to vehicle control, read-out: B-lin normalized cell count
  activity at 2.5 µM: 0.24%
B cells (B-lin); parameter from QSP model fitting, read-out: Emax_drug_B
  Emax: 102%
[5]; dose 0.2 nM
  activity at 0.0002 µM: 103%
[5]; dose 1 nM
  activity at 0.001 µM: 126%
[5]; dose 5 nM
  activity at 0.005 µM: 15.2%
[5]; dose 25 nM
  activity at 0.025 µM: 0.367%
[5]; dose 100 nM
  activity at 0.1 µM: 0.162%
[5]; dose 500 nM
  activity at 0.5 µM: 0.693%
[5]; dose 2500 nM
  activity at 2.5 µM: 0.207%
